This passage reports IC50 and Ratio IC50 results from ChEMBL document CHEMBL1681719, “Synthesis and evaluation of 1,5-diaryl-substituted tetrazoles as novel selective cyclooxygenase-2 (COX-2) inhibitors” (Bioorg Med Chem Lett, 2011).

For orientation: pIC50 means −log10 of the IC50, conventionally taken in molar units.

pIC50: −log10 of the molar value.

One assay concerns the target T1, Prostaglandin G/H synthase 2 (Homo sapiens, UniProt P35354).
T1 sequence (P35354 whole entry): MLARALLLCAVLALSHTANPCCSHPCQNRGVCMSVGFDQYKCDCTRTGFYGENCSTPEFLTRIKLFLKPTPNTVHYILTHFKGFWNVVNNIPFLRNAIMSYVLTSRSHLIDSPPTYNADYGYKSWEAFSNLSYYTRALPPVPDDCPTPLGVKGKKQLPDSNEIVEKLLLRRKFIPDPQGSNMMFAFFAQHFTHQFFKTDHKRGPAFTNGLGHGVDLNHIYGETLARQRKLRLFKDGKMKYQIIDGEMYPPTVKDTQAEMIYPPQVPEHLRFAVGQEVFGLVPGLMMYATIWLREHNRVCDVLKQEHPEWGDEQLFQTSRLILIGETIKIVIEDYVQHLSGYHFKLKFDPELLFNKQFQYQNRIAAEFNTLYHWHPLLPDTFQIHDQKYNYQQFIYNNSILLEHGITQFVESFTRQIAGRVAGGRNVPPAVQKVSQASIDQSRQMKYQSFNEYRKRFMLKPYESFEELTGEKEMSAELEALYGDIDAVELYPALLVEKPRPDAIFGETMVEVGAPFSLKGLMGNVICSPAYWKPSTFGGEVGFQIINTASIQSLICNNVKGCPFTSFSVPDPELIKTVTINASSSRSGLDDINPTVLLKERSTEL
In words: Inhibition of human recombinant COX-2 by fluorescence assay.
For `CS(=O)(=O)c1ccc(-c2nnnn2-c2ccccc2)cc1`, the pIC50 was 3.70.
As to `COc1ccc(-n2nnnc2-c2ccc(S(C)(=O)=O)cc2)cc1`, the pIC50 is 5.70.
The same measure, in the same setting: to `Cc1ccc(-n2nnnc2-c2ccc(S(C)(=O)=O)cc2)cc1` belongs 4.35; to `CS(=O)(=O)c1ccc(-c2nnnn2-c2ccc(Cl)cc2)cc1`, 3.96; to `CS(=O)(=O)c1ccc(-c2nnnn2-c2ccc(F)cc2)cc1`, 5.57.

Test system in the next assay: not listed separately
The experiment in a line: Selectivity index ratio of IC50 for ovine COX-1 to IC50 for human recombinant COX-2.
Take `CS(=O)(=O)c1ccc(-c2nnnn2-c2ccccc2)cc1`: the Ratio IC50 turned out to be 18.5.
As for `COc1ccc(-n2nnnc2-c2ccc(S(C)(=O)=O)cc2)cc1`, the Ratio IC50 was 210.
Turning to `Cc1ccc(-n2nnnc2-c2ccc(S(C)(=O)=O)cc2)cc1`, the Ratio IC50 was determined as 180.
Take `CS(=O)(=O)c1ccc(-c2nnnn2-c2ccc(Cl)cc2)cc1`: the Ratio IC50 worked out at 4.5.
As for `CS(=O)(=O)c1ccc(-c2nnnn2-c2ccc(F)cc2)cc1`, the Ratio IC50 was 237.

For the next assay, the target named is T2, Prostaglandin G/H synthase 1 (Ovis aries, UniProt P05979).
T2 sequence (P05979 whole entry): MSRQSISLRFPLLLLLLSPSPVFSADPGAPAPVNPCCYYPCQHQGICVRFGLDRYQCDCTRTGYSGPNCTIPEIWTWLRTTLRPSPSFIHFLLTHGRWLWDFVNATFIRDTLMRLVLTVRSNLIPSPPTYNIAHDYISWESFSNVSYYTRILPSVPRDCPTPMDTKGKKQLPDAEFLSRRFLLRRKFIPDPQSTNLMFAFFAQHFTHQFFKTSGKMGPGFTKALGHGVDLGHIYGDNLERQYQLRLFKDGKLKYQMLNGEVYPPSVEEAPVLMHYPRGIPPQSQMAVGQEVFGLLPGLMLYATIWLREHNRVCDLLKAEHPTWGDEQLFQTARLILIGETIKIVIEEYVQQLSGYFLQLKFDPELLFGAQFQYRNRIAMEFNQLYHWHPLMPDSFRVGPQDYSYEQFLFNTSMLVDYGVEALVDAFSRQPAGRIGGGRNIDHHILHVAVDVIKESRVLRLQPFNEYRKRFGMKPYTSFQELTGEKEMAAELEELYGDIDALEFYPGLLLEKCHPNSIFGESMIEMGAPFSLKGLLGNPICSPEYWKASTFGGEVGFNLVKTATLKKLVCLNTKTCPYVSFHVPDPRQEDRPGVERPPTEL
The experiment in a line: Inhibition of ovine COX-1 by fluorescence assay.
For the molecule `CS(=O)(=O)c1ccc(-c2nnnn2-c2ccccc2)cc1`, the pIC50 was 2.43.
Same read-out and setting: to `COc1ccc(-n2nnnc2-c2ccc(S(C)(=O)=O)cc2)cc1` belongs 3.38; to `Cc1ccc(-n2nnnc2-c2ccc(S(C)(=O)=O)cc2)cc1`, 2.09.
The molecule `CS(=O)(=O)c1ccc(-c2nnnn2-c2ccc(Cl)cc2)cc1` gave a negative logarithm of the IC50 (pIC50) of 3.30.
For `CS(=O)(=O)c1ccc(-c2nnnn2-c2ccc(F)cc2)cc1`, the pIC50 is 3.19.
